Source: US20130052259A1, “LIPOSOMES COMPRISING AMPHIPATHIC DRUGS AND METHOD FOR THEIR PREPARATION” (priority 2010, published 2013)
≈ marks a conversion by molar mass, not a printed value.

What was measured:
[1] = Maximum tolerated dose (MTD); design: species or system mice; details: mouse, in vivo; ≦15% body weight loss nadir lasting ≦2 days
Procedure: The MTD is determined in clinical trials by testing increasing doses on different groups of people until the highest dose with acceptable side effects is found. For each drug, the MTD as determined in clinical trials is then available via publicly available sources such as SciFinder which is the On Line search engine of The American Chemical Society for various information including MTD (in animals as well as in humans). […] In this context, the “MTD ratio” between two drugs is the ratio between the MTD determined for each drug.
Tumor volume, survival, and body weight were monitored 2-3 times per week.

in vivo = details: nude, mouse, plasma, iv
[2] = In vitro release of drugs from nanoliposomes in adult bovine serum at 37° C.; format: in vitro ADME; details: drug encapsulated in nSSL
Procedure: For studying the effect of biological fluids, drug loaded nSSLs were incubated up to 96 h at 37° C. in adult bovine serum (Biological Industries, Beit Haemek, Israel).

[3] = Physicochemical properties of VCR and TPT
Excerpt: The need to develop one liposome that includes two drugs at a specific predefined mole ratio required optimization of the loading conditions and “crosstalk” with the drugs. For this, physiochemical characterization of the two drugs is required.

[4] = system: Daoy medulloblastoma cells; test: MTT cytotoxicity and median-effect (CI) analysis, Daoy; details: for Fractional kill (fa): 72 h MTT; for Dx (Dx1, Dx2, Dx12: dose for effect level fa): doses of Table 1 (ng/ml);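 on all read-outs here: drugs applied at fixed ratios over eight concentrations for 72 h, survival expressed against untreated control wells, affected fraction (fa) derived per well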
Procedure: Human medulloblastoma (Daoy) cells, colon cancer (SW480) cells and neuroblastoma (NB-EB) cells were exposed to fixed ratios at eight concentrations of drugs for 72 hours along the profile of the most cytotoxic drug. Viable cells were quantified using standard MTT assay (T. Mosmann, Rapid colorimetric assay for cellular growth and survival: application to proliferation and cytotoxicity assays. J Immunol Methods 65(1-2) (1983) 55-63).
Test data were converted to a percentage mean cell survival value relative to untreated control wells. The fraction of affected cells (fa) was subsequently determined for each well.
The median effect analysis uses the combination index (CI) value as a quantitative indicator of the degree of synergy or antagonism. Using this analysis method, CI=1.0 reflects additive activity, CI>1 signifies antagonism, and CI<1.0 indicates synergy.
Firstly, in vitro cytotoxicity of VCR, TPT and their combinations was evaluated using the median-effect analysis of Chou et al [T. C. […] The selection of this drug interaction analysis method was based on its suitability for assessing whether drugs interact synergistically (CI<1.0), additively (CI f 1.0), or antagonistically (CI>1.0) as a function of drug concentration for different fixed drug/drug ratios.

SW480 (colon) tumors = test: Efficacy against SW480 (colon) tumors in nude mice, Kaplan-Meier; details: SW480 tumors s.c., i.v. at days 17, 23 and 29
Procedure: Nine mice were treated in each group. All mice received injections through the tail vain at days 17, 23 and 29.
Approximately 4 million Daoy and SW480 tumor cells were inoculated subcutaneously (s.c.) in the back of 5 weeks old NUDE-Hsd:Athymic mice. Tumor weights were determined according to the equation (length×width^2)/2 using direct caliper measurements (D. M. Euhus, C. Hudd, M. C. LaRegina, F. E. Johnson, Tumor measurement in the nude mouse. J Surg Oncol 31(4) (1986) 229-234; M. M. Tomayko, C. P. Reynolds, Determination of subcutaneous tumor size in athymic (nude) mice. Cancer Chemother Pharmacol 24(3) (1989) 148-154).
The statistical significance between different treatment groups was determined using Mood's median test [A. M. Mood, Introduction to the theory of statistics, McGraw-Hill, New York, 1950.].

[5] = Pharmacokinetics in tumor-bearing nude mice after i.v. administration; details: eight hours post injection, based on AUC value

Compound | AUC (in vivo) | Cmax (in vivo) | MRT (in vivo) | clearance (in vivo) | half-life (in vivo) | release kinetics order [2] | pKa [3] | solubility ([3]; pH 6, aqueous buffer) | solubility ([3]; pH 8, aqueous buffer) | m (slope, Hill-type coefficient of the dose-effect curve) ([4]; Daoy cells) | Dx (Dx1, Dx2, Dx12: dose for effect level fa) ([4]; fa 0.1) | Dx (Dx1, Dx2, Dx12: dose for effect level fa) ([4]; fa 0.2) | Dx (Dx1, Dx2, Dx12: dose for effect level fa) ([4]; fa 0.3) | Dx (Dx1, Dx2, Dx12: dose for effect level fa) ([4]; fa 0.4) | Dx (Dx1, Dx2, Dx12: dose for effect level fa) ([4]; fa 0.5) | Dx (Dx1, Dx2, Dx12: dose for effect level fa) ([4]; fa 0.6) | Dx (Dx1, Dx2, Dx12: dose for effect level fa) ([4]; fa 0.7) | Dx (Dx1, Dx2, Dx12: dose for effect level fa) ([4]; fa 0.8) | Dx (Dx1, Dx2, Dx12: dose for effect level fa) ([4]; fa 0.9) | other results
CC[C@]1(O)C[C@H]2CN(CCc3c([nH]c4ccccc34)[C@@](C(=O)OC)(c3cc4c(cc3OC)N(C=O)[C@H]3[C@@](O)(C(=O)OC)[C@H](OC(C)=O)[C@]5(CC)C=CCN6CC[C@]43[C@@H]65)C2)C1 [Vincristine (VCR), Vincristine] | 2510 ± 460 ng·h/mL | 1370 ± 340 ng/mL | 1.73 ± 0.3 h | 0.273 mL/min | 2.09 h | zero-order kinetics | 7.64 | 300 µM (≈ 247 µg/mL) | 10 µM (≈ 8.25 µg/mL) | m: 1.926 | 1.76 | 2.68 | 3.55 | 4.46 | 5.50 | 6.79 | 8.55 | 11.31 | 17.22 | MTD [1]: 1.5 mg/kg; logP [3]: 2.97; logD ([3]; pH 6): 1.2; logD ([3]; pH 8): 2.81; IC50 ([4]; Homo sapiens, Daoy, read-out: Dm (dose required to produce the median-effect)): 5.51 ng/mL (≈ 6.67 nM); Log [1/(1/fa − 1)] ([4]; dose 1 ng/ml): −1.43; Fractional kill (fa) ([4]; dose 1 ng/ml): 0.04; Log [1/(1/fa − 1)] ([4]; dose 2 ng/ml): −0.93; Fractional kill (fa) ([4]; dose 2 ng/ml): 0.11; Log [1/(1/fa − 1)] ([4]; dose 4 ng/ml): −0.36; Fractional kill (fa) ([4]; dose 4 ng/ml): 0.30; Log [1/(1/fa − 1)] ([4]; dose 8 ng/ml): 0.65; Fractional kill (fa) ([4]; dose 8 ng/ml): 0.82; Log [1/(1/fa − 1)] ([4]; dose 24 ng/ml): 1.07; Fractional kill (fa) ([4]; dose 24 ng/ml): 0.92
Topotecan [Topotecan (TPT)] |  |  |  |  |  | first-order kinetics followed by zero-order kinetics |  |  |  | m: 1.663 | 21.67 | 35.29 | 48.80 | 63.65 | 81.23 | 103.66 | 135.22 | 186.99 | 304.53 | therapeutic efficacy (Kaplan-Meier, tumor ≧1000 mg as endpoint) (SW480 (colon) tumors; listed as Free TPT): inferior to the liposomal formulations; therapeutic efficacy (Kaplan-Meier, tumor ≧1000 mg as endpoint) (SW480 (colon) tumors; listed as free TPT): more efficacious for colon cancer; Dm (dose required to produce the median-effect) ([4]; Daoy cells, […]): Dm: 81.23 ng/ml; Log [1/(1/fa − 1)] ([4]; dose 40 ng/ml): −0.64; Fractional kill (fa) ([4]; dose 40 ng/ml): 0.18; Log [1/(1/fa − 1)] ([4]; dose 60 ng/ml): −0.08; Fractional kill (fa) ([4]; dose 60 ng/ml): 0.46; Log [1/(1/fa − 1)] ([4]; dose 80 ng/ml): 0.04; Fractional kill (fa) ([4]; dose 80 ng/ml): 0.52; Log [1/(1/fa − 1)] ([4]; dose 200 ng/ml): 0.59; Fractional kill (fa) ([4]; dose 200 ng/ml): 0.80; Log [1/(1/fa − 1)] ([4]; dose 400 ng/ml): 1.15; Fractional kill (fa) ([4]; dose 400 ng/ml): 0.93
CC[C@@]1(O)C(=O)OCc2c1cc1n(c2=O)Cc2cc3c(CN(C)C)c(O)ccc3nc2-1 [Topotecan (TPT), Topotecan] | 2700 ± 910 ng·h/mL | 3980 ± 1040 ng/mL | 0.6 ± 0.07 h | 1.28 mL/min | 1.03 h |  | 7.65 | 3600 µM (≈ 1520 µg/mL) | 200 µM (≈ 84.3 µg/mL) |  |  |  |  |  |  |  |  |  |  | lactone ratio of TPT [5]: 9%; Non-polar/polar surface area ratio [3]: 2.81
